Values joined by “and” are separate entries in the source; they are usually repeats but may differ in a detail not shown here. Equal values may be shown once.
Columns and labels:
[1] = Absorbed dose of vapor by skin of an arm in feedback-controlled exposure chamber, six voluntary subjects (Embodiment 1, 300±10 ppm); type: in vivo, human; details: human, topical or ocular, 300±10 ppm vapor; mean of six subjects; read-out: permeability constant, mean (converted)
Experimental: (§1) The injection rate of the injection system was checked with a five-digit balance (Mettler model AT-201, Switzerland). 2-methoxy ethanol was continuously injected into a glass bottle, and six continuous injections were measured to obtain the average value and the coefficient of variation. Each continuous injection had 10 injection does. An average injection dose was obtained from the […] injection doses. The average dose of each ejection was then used as a computation base for checking the injection dose of the system. After each human experiment, the above weight calibration was used again to check the average injection dose of each ejection so as to obtain the relative percentage error of the average injection doses before and after the experiment. The flash evaporation chamber is a small glass chamber which is embraced by a heating strap and a temperature control device, as shown in FIG. 1. The flash evaporation chamber was used to accelerate the evaporation of the liquid 2-methoxy ethanol and to shorten the reaction time of the system. When the evaporation of the liquid was slower than the skin absorption rate, it will cause the injection system to continuously inject the 2-methoxy ethanol, and thus result in an excess absorption dose of the vapor by the skin of the human under test. The flash evaporation chamber of the present invention can avoid this problem by providing with the heating strap.
(§2) The measurement of the absorbed dose of vapor by skin was carried out respectively with each of six voluntary subjects whose personal data are shown in the following Table 3:
(§3) The method of the first embodiment is illustrated in FIG. 1 in which the arm of a subject is shown being put into an exposure chamber. The exposure chamber contains 2-methoxy ethanol having a concentration of 300±10 ppm, with the relative humidity and the temperature of the exposure chamber being respectively 80±2%, and 25±1° C. For details of the control of the first embodiment, please refer to the Preparatory Embodiments described above.
(§4) According, m5 can be justifiably ignored.

skin [2] = assay: as above; type: in vivo, human
Experimental: as §1, §2, §3, §4

[3] = 2-methoxy ethanol dose in the subject's exhalation; type: in vivo; details: human, exhaled air, topical or ocular; of the total absorbed dose; read-out: 2-methoxy ethanol doses in the subject's exhalation, share of total absorbed dose
Source text: as §4

[4] = Johanson et al, 1988; cited from earlier work
[5] = general statement, no test shown; cited from earlier work
skin [6] = assay: Absorbed dose of vapor by skin in exposure chamber (Embodiment 2, 25±1.5 ppm); details: 25±1.5 ppm vapor
Source text: The test concentration of the hazardous gas is 25 ppm in compliance with the allowable limit set forth by OSHA. In light of the lack of an exposure chamber large enough to accommodate a human body in its entirety, a small exposure chamber was used to investigate the absorption of the hazardous gas by the skin of an arm. On the basis of the result of the hand, the absorption of the hazardous gas by the skin of the whole body was estimated. […] The hand and the arm of a worker are often exposed on the job and are therefore used as subjects of the investigation. It is also assumed that the gas absorption rate of the skin of a hand is about equal to the average value of the gas absorption rate of the skin of the whole body. […] As a result, an absorbed dose of 300 ppm by a hand is about corresponding to an absorbed dose of 15 ppm by a whole body (300 ppm*1,250 cm^2 /18,000 cm^2 * 0.75). […] The digital signals were then transmitted to a computer (Pentium 100). When the concentration signal of the hazardous gas contained in the exposure chamber received by the computer was lower than the lower limit of 23.5 ppm, an instruction was generated by the software program and transmitted to activate the automatic injection system to raise quickly the concentration up to the upper limit of 26.5 ppm. […] Throughout the experiment of the present invention, a series of injected doses of the hazardous gas were obtained. The sum of the injected doses was used to compute the absorbed dose of the hazardous gas by the skin.
The rotation speeds of the two fans were adjusted to obtain desired wind velocities and flow streams by using an adjustable resistor. […] When the hand was extended into the exposure chamber, the contact portions of the hand and the exposure chamber were covered with two layers of aluminum foil in conjunction with a transparent plastic bag therebetween. In addition, the upper arm was banded with the 3M bandage to avert the gas leak. Located respectively in the front, the middle and the rear of the exposure chamber was a detector for monitoring the uniformity of the gas concentration distribution and the change in the gas concentration throughout the experiment.
It must be noted here that m1 is equal to the post-calibration injection rate multiplied by the accumulated injection times. […] This implies that only m1 and m2 must be measured with precision.

[7] = 300±10 ppm vapor, 80±2% RH, 25±1° C., arm, individual subjects 1-6
[8] = 300±10 ppm vapor, mean of six subjects

Which Papp [1] does the source give for `COCCO` [2-methoxy ethanol] here?
The Papp was 3890 ×10⁻⁶ cm/s.

What about the “m1 (accumulated doses added to stabilize the concentration in the exposure chamber)” value (skin [2]; [7]) of the same compound?
The value was 430.00 mg and 296.88 mg and 172.46 mg and 285.11 mg and 350.67 mg and 394.56 mg.

And the “m2 (doses captured by the condensation dehumidifier)” value (skin [2]; [7])?
The value was 328.50 mg and 222.75 mg and 137.75 mg and 210.00 mg and 301.00 mg and 304.75 mg.

And the “m3 (gas residual left on the exposed arm after termination of exposure)” value (skin [2]; [7])?
Its value is 0.35 mg and 0.58 mg and 0.66 mg and 0.63 mg and 0.16 mg.

What about the permeability constant (skin [2]; [7]) of the same compound?
Its permeability constant is 5575 ×10⁻⁶ cm/s and 4600 ×10⁻⁶ cm/s and 1650 ×10⁻⁶ cm/s and 4508 ×10⁻⁶ cm/s and 2540 ×10⁻⁶ cm/s and 4469 ×10⁻⁶ cm/s.

What about the skin absorption rate (skin [2]; [7]) of the same compound?
The skin absorption rate was 18.72 μg/cm^2 /h and 15.45 μg/cm^2 /h and 5.55 μg/cm^2 /h and 15.14 μg/cm^2 /h and 8.52 μg/cm^2 /h and 15.01 μg/cm^2 /h.

And the “Δm (absorbed dose by skin, m1-m2-m3-m4)” value (skin [2]; [7])?
The value was 96.11 mg and 68.51 mg and 29.01 mg and 69.44 mg and 44.04 mg and 84.61 mg.

And the “skin absorption rate, mean” value (skin [2]; [8])?
The value was 13.07 μg/cm^2 /h.

What about the “Δm (absorbed dose by skin), mean” value (skin [2]; [8]) of the same compound?
Its value is 65.29 mg.

And the “m3 and m4, respectively, relative to the dose of m1” value (skin [2]; of the dose of m1)?
The value was “less than 1%”.

What about the dose excreted [3] of the same compound?
Its dose excreted is under 0.4%.

What about the “distribution coefficient of the human blood relative to air” value [4] of the same compound?
The value was 32,836.

And the water solubility [5]?
Its water solubility is “excellent”.

What about the “m1 (accumulated doses added to the exposure chamber)” value (skin [6]) of the same compound?
Its value is 34.5 mg.

What about the “m2 (doses captured by the condensation dehumidifier)” value (skin [6]) of the same compound?
Its value is 27.1 mg.

And the “m3 (gas residual left on the exposed arm)” value (skin [6])?
Its value is 0.04 mg.

And the “m5 (doses contained in the subject's exhalations)” value (skin [6])?
The value was “trace”.
